Test results from PMC9821237, “Spectroscopic Characterization and Biological Activity of Hesperetin Schiff Bases and Their Cu(II) Complexes” (International Journal of Molecular Sciences, 2023).
Read-outs that look alike come from different tables or passages of the source. Marks after values point to notes of the source that are not given here.

Experiments:
HeLa cells [1] = assay: Comet assay with endonuclease III, oxidative DNA damage; type: cell-based, human; conditions: 50 µM, net damage recognised by Endo III (oxidative DNA damage)
Protocol: Oxidative DNA damage was evaluated with the DNA repair enzyme–endonuclease III (Endo III, New England Biolabs Inc., Germany) in model HeLa cells. The procedure was performed according to [67]. To estimate the ability of the enzyme to recognize oxidized DNA bases, the cells were incubated either with tested compounds (at concentration of 50 µM), or hydrogen peroxide (50 µM), lysed and post-treated with Endo III. After lysis slides were washed three times in an enzyme buffer (composed of 40 mM HEPES-KOH, 0.1 KCl, 0.5 mM EDTA, 0.2 mg/mL bovine serum albumin, pH 8.0) and drained, and the agarose was covered with 25 µL of either enzyme buffer or enzyme at 1 µg/mL in buffer, sealed with a cover glass and incubated for 30 min at 37°C. Further steps were described above. To determine the net value of DNA damage recognized by the enzyme, the DNA damage observed in the absence of the enzyme was subtracted from that measured in the presence of it.

HeLa cells [2] = assay: Neutral comet assay, DNA double-strand breaks (DSBs); type: cell-based, human; conditions: 50 µM
Protocol: The ability of tested compounds (at concentration of 50 µM) to induce DNA double-strand breaks (DSBs) in model HeLa cells was evaluated by the neutral comet assay according to Błasiak et al. (2012). In this version of the comet assay electrophoresis ran in a buffer consisting of 100 mM Tris and 300 mM sodium acetate at pH 9.0 (with glacial acetic acid). Electrophoresis was conducted for 60 min, after a 20 min equilibrium period, at an electric field strength of 0.41 V/cm (50 mA) at 4 °C. The slides were then proceeded as described in the “Single-cell gel electrophoresis assay” section.

LLC-PK1 cells = assay: Alkaline comet assay, basal endogenous DNA damage; conditions: LLC-PK1, 50 µM, 1 h, mean ± S.E.M.
HeLa cells [3] = assay: Alkaline comet assay, basal endogenous DNA damage; conditions: 1 h, mean ± S.E.M.
Caco-2 cells [4] = assay: Alkaline comet assay, basal endogenous DNA damage; conditions: Caco-2, 50 µM, 1 h, mean ± S.E.M.
Caco-2 cells [5] = conditions: human, 1 h, 50 µM

Row | Structure (SMILES) | Mean DNA (%) in Comet Tail (±S.E.M.) of HeLa Cells, Endo III (HeLa cells [1]) | Mean DNA (%) in Comet Tail (±S.E.M.) of HeLa Cells, DSBs (HeLa cells [2]) | DNA damage, percentage of DNA in the comet tail (LLC-PK1 cells) | DNA damage, percentage of DNA in the comet tail (HeLa cells [3]; 1 µM) | DNA damage, percentage of DNA in the comet tail (Caco-2 cells [4]) | DNA damage, percentage of DNA in the comet tail (Caco-2 cells [5]) | DNA damage, percentage of DNA in the comet tail (HeLa cells [3]; 50 µM)
1 | COc1ccc(C2C/C(=N\NC(=O)c3ccccc3)c3c([O][Cu][O]C(C)=O)cc(O)cc3O2)cc1O (stereo not drawn) [CuHHSB, (E)-acetoxy((4-(2-benzoylhydrazono)-7-hydroxy-2-(3-hydroxy-4-methoxyphenyl)chroman-5-yl)oxy)copper] | 8.3 ± 2.7 ^a % | 14.4 ± 0.7 ^a,b % |  |  |  |  | 
2 | COc1ccc(C2C/C(=N\NC(=O)c3ccncc3)c3c([O][Cu][O]C(C)=O)cc(O)cc3O2)cc1O (stereo not drawn) [CuHIN, (E)-acetoxy((7-hydroxy-2-(3-hydroxy-4-methoxyphenyl)-4-(2-isonicotinoylhydrazono)chroman-5-yl)oxy)copper] | 12.2 ± 4.2 ^a % | 7.7 ± 3.6 ^a % |  |  |  |  | 
3 | COc1ccc(C2C/C(=N\NC(N)=S)c3c([O][Cu][O]C(C)=O)cc(O)cc3O2)cc1O (stereo not drawn) [CuHTSC, (E)-acetoxy((4-(2-carbamothioylhydrazono)-7-hydroxy-2-(3-hydroxy-4-methoxyphenyl)chroman-5-yl)oxy)copper] | 11.6 ± 1.9 ^a % | 6.4 ± 2.3 ^a,c % |  |  |  |  | 
4 | COc1ccc(C2CC(=NNC(=O)c3ccccc3)c3c(O)cc(O)cc3O2)cc1O (stereo not drawn) [HHSB, N-[2,3-dihydro-5,7-dihydroxy-2-(3-hydroxy-4-methoxyphenyl)chromen-4-ylidene]benzhydrazide] | 7.5 ± 3.9 ^a % |  | 26.3% ± 4.8% | 28.8% ± 4.1% | 34.0% ± 4.6% |  | 
5 | COc1ccc(C2CC(=NNC(=O)c3ccncc3)c3c(O)cc(O)cc3O2)cc1O (stereo not drawn) [HIN, N-[2,3-dihydro-5,7-dihydroxy-2-(3-hydroxy-4-methoxyphenyl)chromen-4-ylidene]isonicotinohydrazide] | 5.3 ± 3.5 ^a % | 19.5 ± 0.7 ^a % |  | 28.9% ± 3.5% | 23.1% ± 3.4% |  | 
6 | COc1ccc(C2CC(=NNC(N)=S)c3c(O)cc(O)cc3O2)cc1O (stereo not drawn) [HTSC, N-[2,3-dihydro-5,7-dihydroxy-2-(3-hydroxy-4-methoxyphenyl)chromen-4-ylidene]thiosemicarbazide] | 10.2 ± 2.0 ^a % | 13.5 ± 0.7 ^a,c % |  |  |  | 32.8% ± 4.4% | 
7 | N.N.[Cl][Pt][Cl] [cisplatin, reference compound] | 26.5 ± 3.9% | 30.2 ± 3.4% | 73.1% ± 3.3% |  |  |  | 
8 | OO [hydrogen peroxide, reference compound] | 26.2% ± 4.6% |  | 54.1% ± 0.2% |  | 42.0% ± 3.6% |  | 50.3% ± 0.6%
